Patent US20250304620A1, “ANTIMICROBIAL PEPTIDE AND APPLICATION THEREOF” (priority 2023, published 2025)
Converted amounts (≈) assume the structure as drawn. Marks after values point to notes of the source that are not given here. Non-standard residues stand in square brackets, D forms with d. Residues, ends and D or L forms follow the SMILES beside them. d2Nal = N[C@H](Cc1ccc2ccccc2c1)C(=O)O

What was measured:
[1] = system: Candida glabrata ATCC 15126; type: cell-based
In short: (§1)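 Peptides were tested against clinical bacterial and fungal strains by CLSI microdilution using a serial twofold dilution series, and the MIC was taken as the value. Replicates: 5, run in parallel.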

[2] = system: Klebsiella pneumoniae ATCC 700603; type: cell-based
In short: as §1

[3] = system: Salmonella typhimurium ATCC 14028; type: cell-based
In short: as §1

[4] = system: Candida albicans ATCC MYA-2876; type: cell-based
In short: as §1

[5] = system: Candida tropicalis ATCC 750; type: cell-based
In short: as §1

[6] = system: Candida krusei ATCC 6258; type: cell-based
In short: as §1

[7] = system: Escherichia coli ATCC 25922; type: cell-based
In short: as §1

[8] = system: Pseudomonas aeruginosa ATCC 27853; type: cell-based
In short: as §1

[9] = system: Bacillus subtilis ATCC 6633; type: cell-based
In short: as §1

[10] = system: Serratia marcescens ATCC 29021; type: cell-based
In short: as §1

[11] = system: Staphylococcus aureus ATCC 25923; type: cell-based
In short: as §1

[12] = system: Trichophyton ATCC MYA-4438; type: cell-based
In short: as §1

[13] = system: Candida utilis ATCC 9950; type: cell-based
In short: as §1

[14] = system: Corynebacterium ATCC 7715; type: cell-based
In short: as §1

[15] = system: Enterococcus ATCC 29212; type: cell-based
In short: as §1

[16] = Serum stability assay (residual level by RP-HPLC); conditions: human
[17] = system: Pseudomonas aeruginosa ATCC 27853; experiment: Injectable formulations on mice infected with peritonitis; type: in vivo, ICR mice; conditions: 1 mg/kg via tail vein, twice a day for 3 days, n = 10; for Average survival times (Days): observed for 14 d
In short: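 ICR mice of both sexes (10 per group) infected intraperitoneally with 0.2 mL P. aeruginosa ATCC 27853 at 1×10^9 CFU/mL. Injectable formulations dosed by body weight via tail vein twice daily for 3 days; deaths and survival time recorded over 14 d.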

[18] = system: carbapenem-resistant Pseudomonas aeruginosa (CRPA); type: cell-based; conditions: carbapenem-resistant (CRPA)
In short: (§2)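 MICs determined by CLSI broth microdilution with serial twofold dilutions of the antimicrobial peptides against clinical drug-resistant isolates. Each determination was repeated 5 times in parallel.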

[19] = system: carbapenem-resistant Escherichia coli (CREC); type: cell-based; conditions: carbapenem-resistant (CREC)
In short: as §2

[20] = system: Methicillin-resistant Staphylococcus aureus (MRSA); type: cell-based; conditions: Methicillin-resistant
In short: as §2

[21] = system: vancomycin-resistant Enterococcus (VRE); type: cell-based
In short: as §2

[22] = system: carbapenem-resistant Klebsiella pneumoniae (CRKP); type: cell-based; conditions: carbapenem-resistant (CRKP)
In short: as §2

[23] = system: Staphylococcus aureus (NRS 384); conditions: NRS 384, 3 h
Method: Trypsin (250 U/mg, pH=8.0) and AMPs (LV-1 to LV-30) were mixed in a ratio of 1:10 (w/w) and added to a reaction buffer (0.2 M sodium phosphate, 1 mM CaCl2), pH 7.5), and then incubated at 37° C. for 3 h.

Compound | MIC Candida glabrata ATCC 15126 [1] | MIC Klebsiella pneumoniae ATCC 700603 [2] | MIC Salmonella typhimurium ATCC 14028 [3] | MIC Candida albicans ATCC MYA-2876 [4] | MIC Candida tropicalis ATCC 750 [5] | MIC Candida krusei ATCC 6258 [6] | MIC Escherichia coli ATCC 25922 [7] | MIC Pseudomonas aeruginosa ATCC 27853 [8] | MIC Bacillus subtilis ATCC 6633 [9] | MIC Serratia marcescens ATCC 29021 [10] | MIC Staphylococcus aureus ATCC 25923 [11] | MIC Trichophyton ATCC MYA-4438 [12] | MIC Candida utilis ATCC 9950 [13] | MIC Corynebacterium ATCC 7715 [14] | MIC Enterococcus ATCC 29212 [15] | remaining at 12 h, 0.91 mg/mL [16] | Number of mice that died on each day after infection: day 1 [17] | Number of mice that died on each day after infection: day 2 [17] | Number of mice that died on each day after infection: day 3 [17] | Number of mice that died on each day after infection: day 4 [17] | also measured
CC(=O)N[C@H](CCCNC(=N)N)C(=O)N[C@H](CCCNC(=N)N)C(=O)N[C@H](CC(C)C)C(=O)N[C@H](CC(C)C)C(=O)N[C@H](Cc1ccc2ccccc2c1)C(=O)N[C@H](CCCNC(=N)N)C(=O)N[C@H](CC(C)C)C(=O)N[C@H](CCCCN)C(=O)N[C@H](Cc1ccc2ccccc2c1)C(=O)N[C@H](CCCNC(=N)N)C(=O)N[C@H](CCCCN)C(N)=O [LV-21] (Ac-[dR][dR][dL][dL][d2Nal][dR][dL][dK][d2Nal][dR][dK]-NH2) | 16 µg/mL (≈ 9.56 µM) | 4 µg/mL (≈ 2.39 µM) | 2 µg/mL (≈ 1.19 µM) | 8 µg/mL (≈ 4.78 µM) | 8 µg/mL (≈ 4.78 µM) | 4 µg/mL (≈ 2.39 µM) | 2 µg/mL (≈ 1.19 µM) | 2 µg/mL (≈ 1.19 µM) | 2 µg/mL (≈ 1.19 µM) | 4 µg/mL (≈ 2.39 µM) | 1 µg/mL (≈ 0.597 µM) | 4 µg/mL (≈ 2.39 µM) | 8 µg/mL (≈ 4.78 µM) | 4 µg/mL (≈ 2.39 µM) | 4 µg/mL (≈ 2.39 µM) | 97.9% | 2 Mouse | 0 Mouse | 2 Mouse | 0 Mouse | Number of mice that died on each day after infection: day 5 [17]: 0 Mouse; Average survival times (Days) [17]: 9.2*** Days; MIC CRPA [18]: 4 µg/mL (≈ 2.39 µM); MIC CREC [19]: 2 µg/mL (≈ 1.19 µM); MIC MRSA [20]: 4 µg/mL (≈ 2.39 µM); MIC VRE [21]: 2 µg/mL (≈ 1.19 µM); MIC CRKP [22]: 2 µg/mL (≈ 1.19 µM); Trypsin MIC [23]: 1 µg/mL
CC(=O)N[C@H](CCCNC(=N)N)C(=O)N[C@H](CCCCN)C(=O)N[C@H](CC(C)C)C(=O)N[C@H](CC(C)C)C(=O)N[C@H](Cc1ccc2ccccc2c1)C(=O)N[C@H](CCCNC(=N)N)C(=O)N[C@H](CC(C)C)C(=O)N[C@H](CCCCN)C(=O)N[C@H](Cc1ccc2ccccc2c1)C(=O)N[C@H](CCCNC(=N)N)C(=O)N[C@H](CCCNC(=N)N)C(N)=O [LV-22] (Ac-[dR][dK][dL][dL][d2Nal][dR][dL][dK][d2Nal][dR][dR]-NH2) | 8 µg/mL (≈ 4.78 µM) | 2 µg/mL (≈ 1.19 µM) | 4 µg/mL (≈ 2.39 µM) | 8 µg/mL (≈ 4.78 µM) | 8 µg/mL (≈ 4.78 µM) | 8 µg/mL (≈ 4.78 µM) | 2 µg/mL (≈ 1.19 µM) | 2 µg/mL (≈ 1.19 µM) | 4 µg/mL (≈ 2.39 µM) | 4 µg/mL (≈ 2.39 µM) | 1 µg/mL (≈ 0.597 µM) | 4 µg/mL (≈ 2.39 µM) | 16 µg/mL (≈ 9.56 µM) | 4 µg/mL (≈ 2.39 µM) | 2 µg/mL (≈ 1.19 µM) | 97.2% | 1 Mouse | 1 Mouse | 0 Mouse | 1 Mouse | Number of mice that died on each day after infection: day 5 [17]: 1 Mouse; Average survival times (Days) [17]: 9.6*** Days; MIC CRPA [18]: 8 µg/mL (≈ 4.78 µM); MIC CREC [19]: 8 µg/mL (≈ 4.78 µM); MIC MRSA [20]: 2 µg/mL (≈ 1.19 µM); MIC VRE [21]: 4 µg/mL (≈ 2.39 µM); MIC CRKP [22]: 2 µg/mL (≈ 1.19 µM); Trypsin MIC [23]: 1 µg/mL
CC(=O)N[C@H](CCCCN)C(=O)N[C@H](CCCNC(=N)N)C(=O)N[C@H](CC(C)C)C(=O)N[C@H](CC(C)C)C(=O)N[C@H](Cc1ccc2ccccc2c1)C(=O)N[C@H](CCCCN)C(=O)N[C@H](CC(C)C)C(=O)N[C@H](CCCCN)C(=O)N[C@H](Cc1ccc2ccccc2c1)C(=O)N[C@H](CCCCN)C(=O)N[C@H](CCCNC(=N)N)C(N)=O [LV-23] (Ac-[dK][dR][dL][dL][d2Nal][dK][dL][dK][d2Nal][dK][dR]-NH2) | 8 µg/mL (≈ 4.94 µM) | 4 µg/mL (≈ 2.47 µM) | 2 µg/mL (≈ 1.24 µM) | 16 µg/mL (≈ 9.89 µM) | 4 µg/mL (≈ 2.47 µM) | 4 µg/mL (≈ 2.47 µM) | 2 µg/mL (≈ 1.24 µM) | 2 µg/mL (≈ 1.24 µM) | 4 µg/mL (≈ 2.47 µM) | 8 µg/mL (≈ 4.94 µM) | 1 µg/mL (≈ 0.618 µM) | 16 µg/mL (≈ 9.89 µM) | 8 µg/mL (≈ 4.94 µM) | 4 µg/mL (≈ 2.47 µM) | 8 µg/mL (≈ 4.94 µM) | 97.5% | 1 Mouse | 1 Mouse | 0 Mouse | 2 Mouse | Number of mice that died on each day after infection: day 5 [17]: 0 Mouse; Average survival times (Days) [17]: 9.5*** Days; MIC CRPA [18]: 4 µg/mL (≈ 2.47 µM); MIC CREC [19]: 2 µg/mL (≈ 1.24 µM); MIC MRSA [20]: 4 µg/mL (≈ 2.47 µM); MIC VRE [21]: 4 µg/mL (≈ 2.47 µM); MIC CRKP [22]: 8 µg/mL (≈ 4.94 µM); Trypsin MIC [23]: 1 µg/mL
